Assay results reported in PubChem BioAssay AID1259407 (Chemical Carcinogenesis Research Information System (CCRIS), 2018).
Active and inactive are the calls of the source. The rule behind the calls is not given here.

System: CCRIS mutagenicity, Ames/micronucleus/aberration tests
Test: CCRIS mutagenicity studies
[1] = Test System: AMES SALMONELLA TYPHIMURIUM, Strain/Indicator: TA98, Metabolic Activation: NONE, Method: PREINCUBATION
[2] = Test System: AMES SALMONELLA TYPHIMURIUM, Strain/Indicator: TA98, Metabolic Activation: RAT LIVER S-9, PHENOBARBITAL AND BETA-NAPHTHOFLAVONE, Method: PREINCUBATION
[3] = Test System: AMES SALMONELLA TYPHIMURIUM, Strain/Indicator: TA100, Metabolic Activation: NONE, Method: PREINCUBATION
[4] = Test System: AMES SALMONELLA TYPHIMURIUM, Strain/Indicator: TA100, Metabolic Activation: RAT LIVER S-9, PHENOBARBITAL AND BETA-NAPHTHOFLAVONE, Method: PREINCUBATION
[5] = Test System: AMES SALMONELLA TYPHIMURIUM, Strain/Indicator: TA102, Metabolic Activation: NONE, Method: PREINCUBATION
[6] = Test System: AMES SALMONELLA TYPHIMURIUM, Strain/Indicator: TA102, Metabolic Activation: RAT LIVER S-9, PHENOBARBITAL AND BETA-NAPHTHOFLAVONE, Method: PREINCUBATION
[7] = Test System: AMES SALMONELLA TYPHIMURIUM, Strain/Indicator: TA104, Metabolic Activation: NONE, Method: PREINCUBATION
[8] = Test System: AMES SALMONELLA TYPHIMURIUM, Strain/Indicator: TA104, Metabolic Activation: RAT LIVER S-9, PHENOBARBITAL AND BETA-NAPHTHOFLAVONE, Method: PREINCUBATION
[9] = Test System: AMES SALMONELLA TYPHIMURIUM, Strain/Indicator: TA1535, Metabolic Activation: NONE, Method: PREINCUBATION
[10] = Test System: AMES SALMONELLA TYPHIMURIUM, Strain/Indicator: TA1535, Metabolic Activation: RAT LIVER S-9, PHENOBARBITAL AND BETA-NAPHTHOFLAVONE, Method: PREINCUBATION
[11] = Test System: AMES SALMONELLA TYPHIMURIUM, Strain/Indicator: TA1537, Metabolic Activation: NONE, Method: PREINCUBATION
[12] = Test System: AMES SALMONELLA TYPHIMURIUM, Strain/Indicator: TA1537, Metabolic Activation: RAT LIVER S-9, PHENOBARBITAL AND BETA-NAPHTHOFLAVONE, Method: PREINCUBATION
[13] = Test System: E.COLI, Strain/Indicator: WP2UVRA/PKM101, Metabolic Activation: NONE, Method: PREINCUBATION
[14] = Test System: E.COLI, Strain/Indicator: WP2UVRA/PKM101, Metabolic Activation: RAT LIVER S-9, PHENOBARBITAL AND BETA-NAPHTHOFLAVONE, Method: PREINCUBATION
[15] = Test System: E.COLI, Strain/Indicator: WP2UVRA, Metabolic Activation: NONE, Method: PREINCUBATION
[16] = Test System: E.COLI, Strain/Indicator: WP2UVRA, Metabolic Activation: RAT LIVER S-9, PHENOBARBITAL AND BETA-NAPHTHOFLAVONE, Method: PREINCUBATION
[17] = Test System: AMES SALMONELLA TYPHIMURIUM, Strain/Indicator: TA100, Metabolic Activation: NONE, Method: STANDARD PLATE

For `CCNNCC`, the mutagenic call [1] was “inactive; negative”, the mutagenic call [2] was “inactive; negative” and the mutagenic call [3] was “inactive; negative”. The mutagenic call (Test System: AMES SALMONELLA TYPHIMURIUM, Strain/Indicator: TA100, Metabolic Activation: NONE, Method: PREINCUBATION (11 HR GROWTH PERIOD FOR BACTERIA)) was “active; positive”, the mutagenic call [4] was “inactive; negative” and the mutagenic call (Test System: AMES SALMONELLA TYPHIMURIUM, Strain/Indicator: TA100, Metabolic Activation: RAT, LIVER, S-9, PCB, Method: PREINCUBATION (11 HR GROWTH PERIOD FOR BACTERIA)) was “inactive; negative”. For the same compound, the mutagenic call [5] was “inactive; negative”, the mutagenic call (Test System: AMES SALMONELLA TYPHIMURIUM, Strain/Indicator: TA102, Metabolic Activation: NONE, Method: PREINCUBATION (5 OR 7 HR GROWTH PERIOD FOR BACTERIA)) was “active; positive” and the mutagenic call (Test System: AMES SALMONELLA TYPHIMURIUM, Strain/Indicator: TA102, Metabolic Activation: NONE, Method: PREINCUBATION (11 HR GROWTH PERIOD FOR BACTERIA)) was “inactive; negative”. The mutagenic call [6] was “inactive; negative”, the mutagenic call (Test System: AMES SALMONELLA TYPHIMURIUM, Strain/Indicator: TA102, Metabolic Activation: RAT, LIVER, S-9, PCB, Method: PREINCUBATION (5 OR 7 HR GROWTH PERIOD FOR BACTERIA)) was “inactive; negative” and the mutagenic call [7] was “inactive; negative”. The mutagenic call [8] was “inactive; negative”, the mutagenic call [9] was “inactive; negative” and the mutagenic call [10] was “inactive; negative”. The mutagenic call [11] was “inactive; negative”, the mutagenic call [12] was “inactive; negative” and the mutagenic call [13] was “inactive; negative”. For the same compound, the mutagenic call [14] was “inactive; negative”, the mutagenic call [15] was “inactive; negative” and the mutagenic call [16] was “inactive; negative”.

For `Cl.Cl.[Cr].c1ccc(-c2ccccn2)nc1.c1ccc(-c2ccccn2)nc1`, the mutagenic call [17] was “active; positive”.

In the case of `C[C@@H]1CC2c3cc(Br)cc4c3c(cn4CC3CC3)C[C@H]2N(C)C1` (stereo partly drawn), the mutagenic call (Test System: AMES SALMONELLA TYPHIMURIUM, Strain/Indicator: TA100, Metabolic Activation: RAT, LIVER, S-9, AROCLOR 1254, Method: STANDARD PLATE) is reported as “inactive; negative”.

In the case of `O=C1c2ccccc2C(=O)c2c(O)cccc21`, the mutagenic call [1] is reported as “inactive; negative”, the mutagenic call (Test System: AMES SALMONELLA TYPHIMURIUM, Strain/Indicator: TA98, Metabolic Activation: RAT, LIVER, S-9, AROCLOR 1254 (10%), Method: PREINCUBATION) is reported as “inactive; negative” and the mutagenic call (Test System: AMES SALMONELLA TYPHIMURIUM, Strain/Indicator: TA98, Metabolic Activation: RAT, LIVER, S-9, AROCLOR 1254, Method: PREINCUBATION) is reported as “inactive; negative”. The mutagenic call [3] was “inactive; negative”, the mutagenic call (Test System: AMES SALMONELLA TYPHIMURIUM, Strain/Indicator: TA100, Metabolic Activation: RAT, LIVER, S-9, AROCLOR 1254 (10%), Method: PREINCUBATION) was “inactive; negative” and the mutagenic call (Test System: AMES SALMONELLA TYPHIMURIUM, Strain/Indicator: TA100, Metabolic Activation: RAT, LIVER, S-9, AROCLOR 1254, Method: PREINCUBATION) was “inactive; negative”. For the same compound, the mutagenic call [5] was “inactive; negative”, the mutagenic call (Test System: AMES SALMONELLA TYPHIMURIUM, Strain/Indicator: TA102, Metabolic Activation: RAT, LIVER, S-9, AROCLOR 1254 (10%), Method: PREINCUBATION) was “inactive; negative” and the mutagenic call [11] was “active; positive”. For the same compound, the mutagenic call (Test System: AMES SALMONELLA TYPHIMURIUM, Strain/Indicator: TA1537, Metabolic Activation: RAT, LIVER, S-9, AROCLOR 1254, Method: PREINCUBATION) was “active; positive” and the mutagenic call (Test System: UDS RODENT HEPATOCYTES, Strain/Indicator: THY INCORP, Metabolic Activation: NONE) was “active; positive”.

With `O=C(O)C1CCCCC1` the mutagenic call (Test System: UDS RAT GASTRIC MUCOSAL CELLS, Strain/Indicator: THY INCORP, Metabolic Activation: NONE, Method: LIQUID SCINTILLATION COUNTING) was “inactive; negative”.

With `ClCc1ccc(Cl)cc1` the mutagenic call (End Point: In vitro chromosomal aberrations, Test System: Chinese hamster lung (CHL/IU) cells, Metabolic Activation: Rat, Liver, S9, Phenobarbital and 5,6-benzoflavone) was “active; positive (structural changes and ploidy). precipitation in the culture medium at”, the mutagenic call [1] was “inactive; negative” and the mutagenic call [2] was “inactive; negative”. For the same compound, the mutagenic call [3] was “inactive; negative”, the mutagenic call [17] was “inactive; negative” and the mutagenic call [4] was “inactive; negative”. For the same compound, the mutagenic call [5] was “inactive; negative”, the mutagenic call [6] was “inactive; negative” and the mutagenic call [7] was “inactive; negative”. The mutagenic call [8] was “inactive; negative”, the mutagenic call [9] was “inactive; negative” and the mutagenic call [10] was “inactive; negative”. The mutagenic call [11] was “inactive; negative”, the mutagenic call [12] was “inactive; negative” and the mutagenic call [13] was “inactive; negative”. For the same compound, the mutagenic call [14] was “inactive; negative”, the mutagenic call [15] was “inactive; negative” and the mutagenic call [16] was “inactive; negative”.

`Cc1c2ccncc2c(C)c2c1[nH]c1ccccc12` was tested, and the mutagenic call (Test System: AMES SALMONELLA TYPHIMURIUM, Strain/Indicator: TA98, Metabolic Activation: RAT, LIVER, S-9, AROCLOR 1254, Method: STANDARD PLATE) was “active; positive”, the mutagenic call (Test System: AMES SALMONELLA TYPHIMURIUM, Strain/Indicator: TA102, Metabolic Activation: NONE, Method: STANDARD PLATE) was “active; positive” and the mutagenic call (Test System: CHINESE HAMSTER V-79, Strain/Indicator: V-79 (HPRT)/6-THIOGUANINE, Metabolic Activation: NONE) was “inactive; negative”. For the same compound, the mutagenic call (Test System: E. COLI, Strain/Indicator: WP2 TM9, Metabolic Activation: NONE, Method: STANDARD PLATE) was “inactive; negative”, the mutagenic call (Test System: MOUSE LYMPHOMA, Strain/Indicator: L5178Y (HPRT)/6-THIOGUANINE, Metabolic Activation: NONE, Method: FLUCTUATION TEST) was “inactive; negative” and the mutagenic call (Test System: MOUSE LYMPHOMA, Strain/Indicator: L5178Y (TK+/TK-), Metabolic Activation: NONE, Method: FLUCTUATION TEST) was “active; positive”. For the same compound, the mutagenic call (Test System: MOUSE LYMPHOMA, Strain/Indicator: L5178Y (TK+/TK-), Metabolic Activation: NONE, Method: SUSPENSION/PLATE) was “active; positive”, the mutagenic call (Test System: Mouse lymphoma, Strain/Indicator: L5178Y (tk+/tk-), Metabolic Activation: None, Method: Suspension/plate) was “active; positive” and the mutagenic call (Test System: Mouse lymphoma, Strain/Indicator: L5178Y (tk+/tk-), Metabolic Activation: Rat, Liver, S-9, Aroclor 1254, Method: Suspension/plate) was “active; positive”.

For `Cn1ccnc1[N+](=O)[O-]`, the mutagenic call [17] was “active; positive”.
